Measurements taken from article PMC5843811, “^44Sc for labeling of DOTA- and NODAGA-functionalized peptides: preclinical in vitro and in vivo investigations” (EJNMMI Radiopharmacy and Chemistry, 2016).
Where two headings read alike, the source gives them in different places.

What was measured:
[1] = tested on: AR42J tumor-bearing mice; conditions: female, CD-1 nude (athymic nude), mouse, in vivo, iv, 5 MBq per mouse
Method: (§1) Female athymic nude mice (CD-1 nude), age 5–6 weeks, were obtained from Charles River Laboratories, Sulzfeld, Germany. U87MG cells and AR42J-cells were suspended in PBS (5 × 10^6 cells in 100 μL) and subcutaneously inoculated on each shoulder. Two to three weeks later, when the tumor reached a size of about 300–500 mm^3, the mice were used for the in vivo studies.
(§2) Biodistribution studies were performed with U87MG tumor and AR42J tumor-bearing mice 2 weeks after tumor cell inoculation. ^44Sc- and ^68Ga-labeled peptides (~5 MBq, ~1 nmol per mouse) were intravenously injected in a volume of 100–200 μL. Mice were sacrificed at 30 min, 2 h and 5 h after injection (p.i.) of the ^44Sc-labeled peptides. Mice which were injected with ^68Ga-labeled peptides were sacrificed at 30 min and 2 h p.i. Selected tissues and organs were collected, weighed, and counted for radioactivity using a γ-counter (Wallac Wizard 1480, Perkin Elmer). The results were listed as a percentage of the injected activity per gram of tissue mass (% IA/g), using counts of a defined volume of the original injection solution counted at the same time. The data were analyzed for significance using a two-way ANOVA test (Graph Pad Prism 6 software, version 6.05). A p-value of < 0.05 was considered statistically significant.

[2] = Biodistribution in AR42J tumor-bearing mice; conditions: female, CD-1 nude (athymic nude), mouse, AR42J tumor / liver, iv, total radioactivity, Tumor-to-liver ratio, i.v. ~5 MBq (~1 nmol), 2 h p.i., mean ± SD, n=3
Method: as §1, §2

[3] = tested on: AR42J tumor-bearing mice; assay: PET/CT imaging of AR42J tumor-bearing mice; conditions: 3 h after i.v. injection of ~10 MBq (~1 nmol; ^44Sc-NODAGA-NOC ~3 nmol), one or two mice
Method: A bench-top preclinical PET scanner (G8, Sofie Biosciences, California, U.S.A. and Perkin Elmer, Massachusetts, U.S.A.) was employed for the PET scans of the tumor-bearing mice. The energy window was set to 150–650 keV. Mice were injected intravenously with ^44Sc- or ^68Ga-labeled peptides (~10 MBq, ~1 nmol per mouse) in a volume of 100–200 μL. The PET scans were performed 3 h and 5 h after injection of the ^44Sc-labeled peptides and 3 h after injection of the ^68Ga-labeled peptides, using G8 acquisition software (version 2.0.0.10). All static PET scans lasted for 20 min. During the acquisition the mice were anesthetized by inhalation of a mixture of isoflurane and oxygen. The images were reconstructed with maximum-likelihood expectation maximization (MLEM). Gauss post-reconstruction filtering was performed using VivoQuant post-processing software (version 2.10, inviCRO Imaging Services and Software, Boston, U.S.A.).

[4] = in vivo; conditions: female, CD-1 nude (athymic nude), mouse, iv, 5 MBq per mouse, total radioactivity, Biodistribution
Method: as §1, §2

[5] = Metal challenge stability in saline with 10 mM Cu^2+ (TLC); type: physicochemical; conditions: 0.9 % NaCl with 10 mM Cu^2+, 37 °C, after two half-lives, 80–100 MBq in 800 μL
Method: Aliquots were taken from the prepared solutions at different time points over at least four half-lives, respectively, of ^44Sc and ^68Ga and analyzed by TLC (TLC was used, as the high metal concentrations used in this study may impair the long-term performance of HPLC columns). […] The TLC plates (Silica-gel 60, Merck) were developed using 0.1 M sodium citrate (pH 4.7) as mobile phase. The quantitative distribution of radioactivity was determined with an autoradiography system (Cyclone Plus, Perkin Elmer) and its associated software (Optiquant, version 5.0).
The influence of high metal cation concentration on the stability of ^44Sc and ^68Ga labeled peptides was monitored in solutions containing 0.01 M Fe^3+ or Cu^2+. An aqueous metal cation solution (16 μL of a 0.5 M Fe^3+/Cu^2+ solution) was added to 80–100 MBq of ^44Sc or ^68Ga labeling solution and diluted with 0.9 % NaCl solution to a volume of 800 μL. The incubation conditions, time points of retrieving samples and analysis by TLC were kept the same, as described above.

[6] = Biodistribution in U87MG tumor-bearing mice; type: in vivo; conditions: female, CD-1 nude (athymic nude), mouse, U87MG tumor, iv, total radioactivity, i.v. ~5 MBq (~1 nmol), 2 h p.i., mean ± SD, n=3, read-out: Biodistribution, U87MG Tumor
Method: as §1, §2

C[C@@H](O)[C@@H]1NC(=O)[C@H](CCCCN)NC(=O)[C@@H](Cc2c[nH]c3ccccc23)NC(=O)[C@H](Cc2cccc3ccccc23)NC(=O)[C@@H](NC(=O)[C@@H](Cc2ccccc2)NC(=O)CN2CCN(CC(=O)O)CCN(CC(=O)O)CCN(CC(=O)O)CC2)CSSC[C@@H](C(=O)N[C@H](CO)[C@@H](C)O)NC1=O [^68Ga-DOTA-NOC, metal not drawn]
Biodistribution, Intestines ([1]; 0.5 h): 0.99 ± 0.13 % IA/g | Biodistribution, Pancreas ([1]; 0.5 h): 2.48 ± 0.11 % IA/g | Biodistribution, Stomach ([1]; 0.5 h): 2.27 ± 0.21 % IA/g | Biodistribution, Pancreas ([1]; 2 h): 1.70 ± 0.22 % IA/g | Biodistribution, Stomach ([1]; 2 h): 1.68 ± 0.27 % IA/g

C[C@@H](O)[C@@H]1NC(=O)[C@H](CCCCN)NC(=O)[C@@H](Cc2c[nH]c3ccccc23)NC(=O)[C@H](Cc2cccc3ccccc23)NC(=O)[C@@H](NC(=O)[C@@H](Cc2ccccc2)NC(=O)CCC(C(=O)O)N2CCN(CC(=O)O)CCN(CC(=O)O)CC2)CSSC[C@@H](C(=O)N[C@H](CO)[C@@H](C)O)NC1=O (stereo partly shown) [^68Ga-NODAGA-NOC, metal not drawn]
tissue to tissue ratio at 2 h [2]: 5.88 ± 0.68 | PET/CT distribution of radioactivity (in words) [3]: accumulated solely in tumors and kidneys

C[C@@H](O)[C@@H]1NC(=O)[C@H](CCCCN)NC(=O)[C@@H](Cc2c[nH]c3ccccc23)NC(=O)[C@H](Cc2cccc3ccccc23)NC(=O)[C@@H](NC(=O)[C@@H](Cc2ccccc2)NC(=O)CN2CCN(CC(=O)O)CCN(CC(=O)O)CCN(CC(=O)O)CC2)CSSC[C@@H](C(=O)N[C@H](CO)[C@@H](C)O)NC1=O [^44Sc-DOTA-NOC, metal not drawn]
Biodistribution, Pancreas ([1]; 2 h): 0.71 ± 0.01 % IA/g | Biodistribution, Stomach ([1]; 2 h): 0.71 ± 0.05 % IA/g | tissue uptake at 0.5 h ([4]; Intestines): 1.02 ± 0.37 %ID/g | tissue uptake at 0.5 h ([4]; Pancreas): 1.29 ± 0.28 %ID/g | tissue uptake at 5 h ([4]; Pancreas): 0.57 ± 0.07 %ID/g | tissue uptake at 0.5 h ([4]; Stomach): 1.38 ± 0.29 %ID/g | tissue uptake at 5 h ([4]; Stomach): 0.52 ± 0.09 %ID/g

N=C(N)NCCC[C@@H]1NC(=O)[C@H](CCCCNC(=O)CN2CCN(CC(=O)O)CCN(CC(=O)O)CCN(CC(=O)O)CC2)NC(=O)[C@@H](Cc2ccccc2)NC(=O)[C@H](CC(=O)O)NC(=O)CNC1=O [^68Ga-DOTA-RGD, metal not drawn]
Amount of intact compound in presence of 10 mM Cu^2+ [5]: 10%

N=C(N)NCCC[C@@H]1NC(=O)[C@H](CCCCNC(=O)CCC(C(=O)O)N2CCN(CC(=O)O)CCN(CC(=O)O)CC2)NC(=O)[C@@H](Cc2ccc(O)cc2)NC(=O)[C@H](CC(=O)O)NC(=O)CNC1=O (stereo partly shown) [^68Ga-NODAGA-RGD, metal not drawn]
tissue uptake at 2 h [6]: 3.13 ± 0.27 %ID/g
